Experimental data as given in patent US12630600B2 (MEDIMMUNE LIMITED, priority 2022, dated 2026).
Starred links: 1 amine or outer side, 2 acyl side, 3 side chain; linkers in the order of their positions; H or OH if unused. Non-standard residues stand in square brackets, D forms with d. Residues, ends and D or L forms follow the SMILES beside them. Groups on a side chain read outwards from the residue. *: point of attachment. C18 diacid = O=C(O)CCCCCCCCCCCCCCCCC(=O)*; Dip = N[C@H](C(=O)O)C(c1ccccc1)c1ccccc1; γGlu = O=C(O)[C@H](CCC(=O)[*:2])N[*:1]; Stearoyl = CCCCCCCCCCCCCCCCCC(=O)*; Palmitoyl = CCCCCCCCCCCCCCCC(=O)*; αMeF = C[C@](N)(Cc1ccccc1)C(=O)O; PEG4 = NCCOCCOCCOCCOCCC(=O)O; PEG2 = NCCOCCOCCC(=O)O; AEEA = NCCOCCOCC(=O)O; Aib = CC(C)(N)C(=O)O

Tested on: wildtype (WT) mice
Assay: Glucose change in wildtype mice
Assay type: in vivo, mouse
Details: s.c.
Protocol: […] and wildtype (WT) mice at 8-14 weeks of age were singly housed on standard chow diet (Envigo, 2918) and automatic water. They acclimated for a minimum of ˜1-2 weeks, and mice were sorted into groups (n=4-8/group) based on body weight. On day of study, mice were fasted briefly for 2 hrs prior to study start. In some studies, mice were pre-treated with octreotide (BaChem, 10 mg/kg) at 30 minutes prior to peptide injection. Glucose was measured via glucometer at various timepoints including −30 min (prior to octreotide when used in studies), 0 min (before peptide dose), 30, 60, 120, 180, 240, and 360 minutes. Since these studies are acute in nature, mice were re-used for multiple studies (no more than 3) and always allowed at least a minimum wash-out period of 1 week.

[1] = 10 nmol/kg, somatostatin pretreatment 30 min prior to cpd

Structure (SMILES) | WT % glucose change 120 min [1] [%] | WT % glucose change 120 min (3 nmol/kg, no somatostatin pretreatment) [%]
CCCCCCCCCCCCCCCCCC(=O)N[C@@H](CCC(=O)N[C@@H](CCC(=O)NCCOCCOCCC(=O)NCCOCCOCCC(=O)NCCCC[C@H](NC(=O)[C@H](CO)NC(=O)[C@H](CC(=O)O)NC(=O)[C@H](CC(C)C)NC(=O)[C@@H](NC(=O)[C@H](CCCCN)NC(=O)[C@H](CO)NC(=O)[C@@H](NC(=O)[C@H](CC(=O)O)NC(=O)[C@H](CO)NC(=O)[C@@H](NC(=O)[C@](C)(Cc1ccccc1)NC(=O)[C@H](CO)NC(=O)CNC(=O)[C@H](CCC(N)=O)NC(=O)[C@H](CO)NC(=O)[C@@H](N)Cc1c[nH]cn1)[C@@H](C)O)C(C)C)C(c1ccccc1)c1ccccc1)C(=O)N[C@@H](C)C(=O)N[C@@H](C)C(=O)N[C@@H](CCC(N)=O)C(=O)N[C@@H](CC(=O)O)C(=O)N[C@@](C)(Cc1ccccc1)C(=O)N[C@H](C(=O)N[C@@H](CCC(=O)O)C(=O)NC(C)(C)C(=O)N[C@H](C(=O)N[C@@H](C)C(=O)N[C@@H](CC(N)=O)C(=O)N[C@H](C(N)=O)[C@@H](C)O)[C@@H](C)CC)C(C)C)C(=O)O)C(=O)O [Peptide 49] (H-HSQGS[αMeF]TSDVSK[Dip]LDSK([PEG2-PEG2-γGlu-γGlu-Stearoyl])AAQD[αMeF]VE[Aib]IANT-NH2; N-terminus assumed) | −1.2 | –
CCCCCCCCCCCCCCCC(=O)N[C@@H](CCC(=O)N[C@@H](CCC(=O)NCCOCCOCCOCCOCCC(=O)NCCCC[C@H](NC(=O)[C@H](CO)NC(=O)[C@H](CC(=O)O)NC(=O)[C@H](CC(C)C)NC(=O)[C@@H](NC(=O)[C@H](CCCCN)NC(=O)[C@H](CO)NC(=O)[C@@H](NC(=O)[C@H](CC(=O)O)NC(=O)[C@H](CO)NC(=O)[C@@H](NC(=O)[C@](C)(Cc1ccccc1)NC(=O)[C@H](CO)NC(=O)CNC(=O)[C@H](CCC(N)=O)NC(=O)C(C)(C)NC(=O)[C@@H](N)Cc1c[nH]cn1)[C@@H](C)O)C(C)C)C(c1ccccc1)c1ccccc1)C(=O)N[C@@H](CCCNC(=N)N)C(=O)N[C@@H](C)C(=O)N[C@@H](CCC(N)=O)C(=O)N[C@@H](CC(=O)O)C(=O)N[C@@](C)(Cc1ccccc1)C(=O)N[C@H](C(=O)N[C@@H](CCC(=O)O)C(=O)NC(C)(C)C(=O)N[C@@H](CC(C)C)C(=O)N[C@@H](CCC(=O)O)C(=O)N[C@@H](C)C(=O)NCC(=O)NCC(N)=O)C(C)C)C(=O)O)C(=O)O [Peptide 43] (H-H[Aib]QGS[αMeF]TSDVSK[Dip]LDSK([PEG4-γGlu-γGlu-Palmitoyl])RAQD[αMeF]VE[Aib]LEAGG-NH2; N-terminus assumed) | – | −56.0
CC[C@H](C)[C@H](NC(=O)C(C)(C)NC(=O)[C@H](CCC(N)=O)NC(=O)[C@@H](NC(=O)[C@](C)(Cc1ccccc1)NC(=O)[C@H](CC(=O)O)NC(=O)[C@H](CCCCNC(=O)COCCOCCNC(=O)COCCOCCNC(=O)CC[C@H](NC(=O)CCCCCCCCCCCCCCCCC(=O)O)C(=O)O)NC(=O)[C@H](C)NC(=O)[C@H](C)NC(=O)[C@H](CCCNC(=N)N)NC(=O)[C@H](CO)NC(=O)[C@H](CC(=O)O)NC(=O)[C@H](CC(C)C)NC(=O)[C@](C)(Cc1ccccc1)NC(=O)[C@H](CCCCN)NC(=O)[C@H](CO)NC(=O)[C@@H](NC(=O)[C@H](CC(=O)O)NC(=O)[C@H](CO)NC(=O)[C@@H](NC(=O)[C@](C)(Cc1ccccc1)NC(=O)[C@H](CO)NC(=O)CNC(=O)[C@H](Cc1c[nH]cn1)NC(=O)C(C)(C)NC(=O)[C@@H](N)Cc1c[nH]cn1)[C@@H](C)O)C(C)C)C(C)C)C(=O)N[C@@H](C)C(=O)N[C@@H](CC(N)=O)C(=O)N[C@H](C(N)=O)[C@@H](C)O [Peptide 224, H-Aib-H-G-S-αMePhe-T-S-D-V-S-K-αMePhe-L-D-S-R-A-A-K(ε-(O2Oc)-(O2Oc)-γE-C18diacid)20-D-αMePhe-V-Q-Aib-I-A-N-T-amide] (H-H[Aib]HGS[αMeF]TSDVSK[αMeF]LDSRAAK([AEEA-AEEA-γGlu-C18 diacid])D[αMeF]VQ[Aib]IANT-NH2) | −40.0 | –
